What all share (assay type): biochemical
The target in assay [1] is T1, noradrenaline (NA) reuptake in synaptosomes (Rattus norvegicus, UniProt Q63380).
T1 construct: in synaptosomes as described in WO 97/16451 (NeuroSearch A/S); from tissue
Kind of assay: Inhibition of NA reuptake in synaptosomes. The note with it: 3H-NA, read-out: NA-uptake IC50. From the text:
(§1) Compounds of the invention may be tested for their ability to inhibit reuptake of the monoamines dopamine, noradrenaline and serotonin in synaptosomes e.g. such as described in WO 97/30997 (NeuroSearch NS) or WO 97/16451 (NeuroSearch NS). Based on the balanced activity observed in these tests the compound of the invention is considered useful for the treatment, prevention or alleviation of a disease or a disorder or a condition of a mammal, including a human, which disease, disorder or condition is responsive to inhibition of monoamine neurotransmitter re-uptake in the central nervous system.
(§2) Compounds were tested for their ability to inhibit the reuptake of the monoamine neurotransmitters dopamine (DA) noradrenaline (NA) and serotonine (5-HT) in synaptosomes as described in WO 97/16451 (NeuroSearch A/S).
(§3) The test values are given as IC50 (the concentration (μM) of the test substance which inhibits the specific binding of ^3H-DA, ^3H-NA, or ^3H-5-HT by 50%).

Assay [2] deals with T2, serotonine (5-HT) reuptake in synaptosomes (Rattus norvegicus, UniProt P31652).
T2 construct: in synaptosomes as described in WO 97/16451 (NeuroSearch A/S); from tissue
T2 sequence (P31652 whole entry): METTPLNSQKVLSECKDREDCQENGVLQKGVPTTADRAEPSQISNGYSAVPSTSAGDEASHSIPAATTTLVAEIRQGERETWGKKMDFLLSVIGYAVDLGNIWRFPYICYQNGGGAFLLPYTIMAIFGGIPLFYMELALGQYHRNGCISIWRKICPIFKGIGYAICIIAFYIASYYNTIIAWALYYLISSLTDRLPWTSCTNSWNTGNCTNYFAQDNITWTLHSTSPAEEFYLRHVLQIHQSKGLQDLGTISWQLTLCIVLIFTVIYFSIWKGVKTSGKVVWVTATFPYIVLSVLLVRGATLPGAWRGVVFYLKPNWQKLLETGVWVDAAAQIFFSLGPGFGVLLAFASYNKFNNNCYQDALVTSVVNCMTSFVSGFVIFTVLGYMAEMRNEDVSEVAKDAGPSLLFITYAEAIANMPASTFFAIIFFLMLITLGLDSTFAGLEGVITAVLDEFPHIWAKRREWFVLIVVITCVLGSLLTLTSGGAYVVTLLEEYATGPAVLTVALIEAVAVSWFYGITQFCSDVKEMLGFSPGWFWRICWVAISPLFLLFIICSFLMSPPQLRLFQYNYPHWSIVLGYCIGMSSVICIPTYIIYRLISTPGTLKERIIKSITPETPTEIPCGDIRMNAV
The experiment in a line: Inhibition of 5-HT reuptake in synaptosomes. The conditions noted are these: 3H-5-HT, read-out: 5-HT-uptake IC50.
Excerpt: as §1, §2, §3

In assay [3] the target is T3, dopamine (DA) reuptake in synaptosomes (Rattus norvegicus, UniProt P23977).
T3 construct: in synaptosomes as described in WO 97/16451 (NeuroSearch A/S); from tissue
T3 sequence (P23977 whole entry): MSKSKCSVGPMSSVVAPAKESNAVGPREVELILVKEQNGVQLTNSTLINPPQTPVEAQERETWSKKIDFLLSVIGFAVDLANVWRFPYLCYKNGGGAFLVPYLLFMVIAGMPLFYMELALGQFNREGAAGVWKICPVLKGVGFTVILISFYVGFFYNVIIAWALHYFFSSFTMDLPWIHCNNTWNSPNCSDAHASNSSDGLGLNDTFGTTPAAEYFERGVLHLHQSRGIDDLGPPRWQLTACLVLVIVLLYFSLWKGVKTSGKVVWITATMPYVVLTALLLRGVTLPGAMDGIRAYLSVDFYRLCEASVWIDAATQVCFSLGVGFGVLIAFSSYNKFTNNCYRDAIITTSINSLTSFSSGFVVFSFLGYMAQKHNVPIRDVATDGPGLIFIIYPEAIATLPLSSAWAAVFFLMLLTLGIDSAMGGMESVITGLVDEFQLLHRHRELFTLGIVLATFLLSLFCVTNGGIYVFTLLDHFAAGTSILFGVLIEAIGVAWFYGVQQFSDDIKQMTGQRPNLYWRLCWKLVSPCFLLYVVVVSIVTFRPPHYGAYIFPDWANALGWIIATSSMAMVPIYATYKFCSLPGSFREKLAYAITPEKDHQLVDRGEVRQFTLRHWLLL
Kind of assay: Inhibition of DA reuptake in synaptosomes. The conditions noted are these: 3H-DA, read-out: DA-uptake IC50.
Excerpt: as §1, §2, §3

As usually defined, the IC50 is the concentration needed to halve the response being measured.

T1 sequence (Q63380 1-617): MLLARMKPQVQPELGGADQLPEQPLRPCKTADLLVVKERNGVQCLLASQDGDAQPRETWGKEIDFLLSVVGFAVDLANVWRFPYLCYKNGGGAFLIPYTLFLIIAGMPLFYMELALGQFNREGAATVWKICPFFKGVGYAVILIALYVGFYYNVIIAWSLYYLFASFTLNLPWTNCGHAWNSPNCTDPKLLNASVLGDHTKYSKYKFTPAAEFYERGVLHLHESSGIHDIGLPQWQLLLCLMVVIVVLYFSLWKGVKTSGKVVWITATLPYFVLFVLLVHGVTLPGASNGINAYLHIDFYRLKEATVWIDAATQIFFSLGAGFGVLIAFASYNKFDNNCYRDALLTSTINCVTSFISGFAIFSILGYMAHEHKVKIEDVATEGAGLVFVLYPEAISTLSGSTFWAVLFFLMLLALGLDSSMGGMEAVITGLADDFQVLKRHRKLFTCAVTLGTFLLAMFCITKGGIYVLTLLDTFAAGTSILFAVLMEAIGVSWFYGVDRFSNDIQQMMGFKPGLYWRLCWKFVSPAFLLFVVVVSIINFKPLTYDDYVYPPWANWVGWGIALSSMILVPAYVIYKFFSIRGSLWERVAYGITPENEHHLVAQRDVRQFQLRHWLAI

For `O=C(Oc1ccc2ccc(=O)oc2c1)N1CC2CCC(C1)N2` [3,8-Diaza-bicyclo[3.2.1]octane-3-carboxylic acid 2-oxo-2H-chromen-7-yl ester], the IC50 in assay [1] came out at 620 nM; in assay [2], 27 nM; in assay [3] it was 92 nM.

For `O=C(Oc1ccc(Cl)c(Cl)c1)N1CC2CCCC(C1)N2` [3,9-Diaza-bicyclo[3.3.1]nonane-3-carboxylic acid 3,4-dichloro-phenyl ester], the IC50 in assay [1] is 2000 nM; in assay [2], 7.8 nM; in assay [3] it was over 1000 nM.

For `CN1C2CCCC1CN(C(=O)Oc1ccc3ccc(=O)oc3c1)C2` [9-Methyl-3,9-diaza-bicyclo[3.3.1]nonane-3-carboxylic acid 2-oxo-2H-chromen-7-yl ester], the IC50 in assay [1] was 1600 nM; in assay [2], 40 nM; in assay [3], 610 nM.

With `COc1ccc2cc(OC(=O)N3CC4CCCC(C3)N4C)ccc2c1` [9-Methyl-3,9-diaza-bicyclo[3.3.1]nonane-3-carboxylic acid 6-methoxynaphthalen-2-yl ester], the concentration for half-maximal inhibition (IC50) in assay [1] was found to be 24 nM; in assay [2] it was 340 nM; in assay [3] it was 30 nM.

(Values after patent publication US20110092487A1, “NOVEL 3,8-DIAZA-BICYCLO[3.2.1]OCTANE-AND 3,9-DIAZA-BICYCLO[3.3.1]-NONANE-3-CARBOXYLIC ACID ESTER DERIVATIVES AND THEIR USE AS MONOAMINE NEUROT[…]-UPTAKE INHIBITORS” (NeuroSearch A/S, priority 2008, published 2011).)
